# According to ChEMBL document CHEMBL3994670, “Therapeutic Advantage of the Positive Allosteric Modulators of the GABA-B Receptor” (ACS Med Chem Lett, 2017):
# Assay: Positive allosteric modulation of GABA-B receptor in rat brain cortex membranes assessed as increase in GABA-induced [35S]GTPgammaS binding after 60 mins by liquid scintillation counting method
# Type: cell membranes
row,Structure (SMILES),EC50
1,COc1ccc(NC(C)=O)cc1-c1nn([C@@H](C)c2ccc(Cl)cc2)c(=O)c2c(C3CC3)noc12,51 nM
2,Cc1noc2c(-c3cncc(F)c3)nn(C(C)c3ccc(Cl)cc3)c(=O)c12 (stereo unspecified),2690 nM
3,CC(=O)Nc1cccc(-c2nn(Cc3ccc(Cl)cc3)c(=O)c3c(C(C)C)noc23)c1,2590 nM

# Results, then the molecule that gave them:
row,EC50,Structure (SMILES)
1,23 nM,CNC(=O)c1ccc(OC)c(-c2nn([C@@H](C)c3ccc(Cl)cc3)c(=O)c3c(C)noc23)c1
2,43 nM,COc1ccc(NC(C)=O)cc1-c1nn([C@@H](C)c2ccc(Cl)cc2)c(=O)c2c(C)noc12
3,17 nM,COc1ccc(C(N)=O)cc1-c1nn(C(C)c2ccc(Cl)cc2)c(=O)c2c(C)noc12 (stereo unspecified)
